How the values were obtained:
[1] = test system: Human umbilical vein endothelial cells; assay: Vascular endothelial cell, 3D culture, ATP assay (Experimental Example 14); assay type: cell-based; conditions: human umbilical vein endothelial cells under three-dimensional conditions
Description: Human umbilical vein endothelial cells (manufactured by PromoCell) were precultured in Endothelial Cell proliferation Medium (manufactured by PromoCell) medium (single layer culture). The above-mentioned cells in the logarithmic growth phase were washed with PBS, DetachKit (manufactured by PromoCell) was added, and adherent cells were detached by incubating at 37° C. for 3 min. The medium was added and the mixture was centrifuged and resuspended in the same medium.
The aforementioned cells were suspended in respective deacylated gellan gum-containing or not containing media (deacylated gellan gum concentration was 0.015 w/v %), and seeded in a 96 well low attachment U-bottom plate (manufactured by Corning, #4520, deacylated gellan gum-free medium), or a low attachment flat bottom plate (manufactured by Corning, #3474, deacylated gellan gum-containing medium) at a cell concentration of 700-2000 cells/90 μL/well (all 3D culture). […] The amount of each compound solution to be added was 10 μL/well. As a control, a DMSO solution dissolved in a medium was added (DMSO final concentration 0.1%).

[2] = test system: plural animal cell lines; assay: Animal cell lines, summary over the cell lines (Experimental Example 15); assay type: cell-based; conditions: animal cell lines under three-dimensional conditions
From the text: Various animal cell lines were precultured (single layer culture) as follows in respective media. Chinese hamster ovary-derived cell line CHO-K1 (manufactured by DS PHARMA BIO MEDICAL, 10% fetal bovine serum (FBS, manufactured by Corning)-containing Ham's F-12 medium (manufactured by Fujifilm Wako Pure Chemical Corporation)), Cercopithecus aethiops kidney epithelium-derived cell line Vero (purchased from JCRB cell bank, 5% FBS-containing Medium 199 medium (manufactured by Life Technologies)). The above-mentioned cells in the logarithmic growth phase were washed with PBS, a 0.25 w/v % trypsin-1 mmol/L EDTA (ethylenediaminetetraacetic acid) solution (manufactured by Fujifilm Wako Pure Chemical Corporation) was added, and adherent cells were detached by incubating at 37° C. for 3 min. Each medium was added and the mixture was centrifuged and resuspended in the same medium.
The aforementioned various animal cells were suspended in respective deacylated gellan gum-containing or not containing media (deacylated gellan gum concentration was 0.02 w/v % in Ham's F-12 medium, 0.015 w/v % in Medium 199 medium), and seeded in a 96 well low attachment U-bottom plate (manufactured by Corning, #4520, deacylated gellan gum-free medium), or a low attachment flat bottom plate (manufactured by Corning, #3474, deacylated gellan gum-containing medium) at a cell concentration of 700-2000 cells/90 μL/well (all 3D culture). […] The amount of each compound solution to be added was […]. As a control, a DMSO solution dissolved in a medium was added (DMSO final concentration 0.1%). […] When compared with the compound non-addition (control), one showing a value of not more than 119% as -, one showing a value of not less than 120% as ◯, and one showing a value of not less than 150% as ⊚ are shown in the twenty-third table and the twenty-fourth table.

SMILES: CCC(=NNC(=O)C(CC)Nc1ccccc1)c1ccc(O)c(C)c1O (centres unmarked) [k-1:H-7]
- proliferation activity (in words) [1]: promoted proliferation activity in human umbilical vein endothelial cells
- proliferation activity (in words) [2]: promoted proliferation activity in plural animal cell lines

— patent publication US20200165194A1, “ADDITIVE COMPOSITION FOR CULTURE MEDIUM, ADDITIVE COMPOUND FOR CULTURE MEDIUM, AND METHOD FOR CULTURE OF CELLS OR TISSUE USING SAME” (NISSAN CHEMICAL CORPORATION, priority 2017, published 2020)
